This experiment is described as follows: Inhibition of Hedgehog signaling pathway in mouse ASZ001 cells assessed as decrease in Gli1 mRNA expression after 48 hrs by qRT-PCR analysis. Format: cell-based. The settings on record: ASZ001, 48 h.
Regarding `CC[C@@H](C)n1ncn(-c2ccc(N3CCN(c4ccc(OC[C@@H]5CO[C@](c6ccc(Cl)cc6Cl)(C(F)(F)F)O5)cc4)CC3)cc2)c1=O`, the half-inhibitory concentration (IC50) (as a rule, the concentration needed to halve the response being measured) turned out to be 67 nM. To `CC[C@@H](C)n1ncn(-c2ccc(N3CCN(c4ccc(OC[C@@H]5CO[C@](CN6C(=O)c7ccccc7C6=O)(c6ccc(Cl)cc6Cl)O5)cc4)CC3)cc2)c1=O` belongs 1070 nM; to `CC[C@@H](C)n1ncn(-c2ccc(N3CCN(c4ccc(OC[C@@H]5CO[C@@](c6ccc(Cl)cc6Cl)(C(F)(F)F)O5)cc4)CC3)cc2)c1=O`, 69 nM; to `CC[C@@H](C)n1ncn(-c2ccc(N3CCN(c4ccc(OC[C@@H]5CO[C@@](CN6C(=O)c7ccccc7C6=O)(c6ccc(Cl)cc6Cl)O5)cc4)CC3)cc2)c1=O`, 820 nM. The same measure for `CC[C@@H](C)n1ncn(-c2ccc(N3CCN(c4ccc(OC[C@@H]5CO[C@@](CCl)(c6ccc(Cl)cc6Cl)O5)cc4)CC3)cc2)c1=O`: 25 nM; for `CC[C@@H](C)n1ncn(-c2ccc(N3CCN(c4ccc(OC[C@@H]5CO[C@@H](c6ccc(Cl)cc6Cl)O5)cc4)CC3)cc2)c1=O`: 310 nM. Take `CC[C@@H](C)n1ncn(-c2ccc(N3CCN(c4ccc(OC[C@@H]5CO[C@@](CN)(c6ccc(Cl)cc6Cl)O5)cc4)CC3)cc2)c1=O`: the IC50 amounted to 550 nM.

Regarding `CC[C@@H](C)n1ncn(-c2ccc(N3CCN(c4ccc(OC[C@@H]5CO[C@](Cn6ccnc6)(c6ccc(Cl)cc6Cl)O5)cc4)CC3)cc2)c1=O`, the IC50 was found to be 110 nM. The same measure for `CC[C@@H](C)n1ncn(-c2ccc(N3CCN(c4ccc(OC[C@@H]5CO[C@@](Cn6ccnc6)(c6ccc(Cl)cc6Cl)O5)cc4)CC3)cc2)c1=O`: 110 nM. The same measure for `CCC(C)n1ncn(-c2ccc(N3CCN(c4ccc(OCC5COC(Cn6cncn6)(c6ccc(Cl)cc6Cl)O5)cc4)CC3)cc2)c1=O` (stereo not drawn) [ITRACONAZOLE]: 140 nM; for `CC[C@@H](C)n1ncn(-c2ccc(N3CCN(c4ccc(OC[C@@H]5CO[C@@](C(N)=O)(c6ccc(Cl)cc6Cl)O5)cc4)CC3)cc2)c1=O`: 940 nM; for `CC[C@@H](C)n1ncn(-c2ccc(N3CCN(c4ccc(OC[C@@H]5CO[C@](CCl)(c6ccc(Cl)cc6Cl)O5)cc4)CC3)cc2)c1=O`: 20 nM. To `CC[C@@H](C)n1ncn(-c2ccc(N3CCN(c4ccc(OC[C@@H]5CO[C@H](c6ccc(Cl)cc6Cl)O5)cc4)CC3)cc2)c1=O` belongs 300 nM.
